Measured values from patent publication US8629164B2, “Inhibitors of NF-κB” (Profectus Biosciences, Inc., priority 2009, dated 2014).

Legend:
RelA/p65 = assay: Immunostaining of RelA/p65 nuclear translocation in Hek293 cells; type: cell-based; settings: TNFα 20 ng/ml, 30 minutes
Procedure: (§1) Specifically, the compound of Example 1 causes the accumulation of activated RelA/p65 in the cytoplasm of cells. Hek293 cells were treated with DHMEQ or the compound of Example 1 (as indicated) with TNFα (20 ng/ml) for 30 minutes. After incubation, the cells were immunostained with anti-p65 antibody (C-20) antibody (Santa Cruz Biotechnology, Santa Cruz, Calif.) and nuclei were counterstained with Dapi. Images were captured using an AE31 inverted microscope with epifluorescence illuminator (Motic, Xiamen, China) and a ProgRes C3 camera (JENOPTIK, Jena, Germany). Individual images of p65 and corresponding nuclei were merged for final figure. Control treated cells (DMSO only) show nuclear accumulation of p65 upon TNFα stimulation.
as §1, with “Immunostaining of RelA/p65. The” for “Specifically, the”, “incubation,” for “incubation, the”, “figure.” for “figure. Control treated cells (DMSO only) show nuclear accumulation of p65 upon TNFα stimulation.”

RelB = molecular target: T1, RelB (Homo sapiens, UniProt Q01201); assay: TransAM NF-κB Family DNA Binding ELISA, RelB; settings: RelB binding to DNA IC50, FIG. 8, non-canonical pathway
T1 sequence (Q01201 1-579): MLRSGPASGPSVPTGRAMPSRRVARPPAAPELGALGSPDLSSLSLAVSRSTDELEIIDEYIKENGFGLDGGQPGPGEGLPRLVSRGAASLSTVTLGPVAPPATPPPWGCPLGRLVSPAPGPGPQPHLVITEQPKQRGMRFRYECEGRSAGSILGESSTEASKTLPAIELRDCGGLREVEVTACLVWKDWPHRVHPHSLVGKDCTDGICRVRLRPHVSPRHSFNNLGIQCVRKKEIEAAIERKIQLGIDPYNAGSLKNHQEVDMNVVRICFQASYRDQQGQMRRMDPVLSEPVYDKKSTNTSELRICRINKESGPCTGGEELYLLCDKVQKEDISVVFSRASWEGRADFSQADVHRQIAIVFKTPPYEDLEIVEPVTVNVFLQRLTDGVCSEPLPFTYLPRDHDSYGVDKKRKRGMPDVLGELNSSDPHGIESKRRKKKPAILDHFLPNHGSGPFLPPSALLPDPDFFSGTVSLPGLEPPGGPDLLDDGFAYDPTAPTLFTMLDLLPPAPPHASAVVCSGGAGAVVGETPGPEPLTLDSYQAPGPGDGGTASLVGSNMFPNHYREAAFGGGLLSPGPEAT
T1 sequence (Q00653 1-454 partner limits assumed): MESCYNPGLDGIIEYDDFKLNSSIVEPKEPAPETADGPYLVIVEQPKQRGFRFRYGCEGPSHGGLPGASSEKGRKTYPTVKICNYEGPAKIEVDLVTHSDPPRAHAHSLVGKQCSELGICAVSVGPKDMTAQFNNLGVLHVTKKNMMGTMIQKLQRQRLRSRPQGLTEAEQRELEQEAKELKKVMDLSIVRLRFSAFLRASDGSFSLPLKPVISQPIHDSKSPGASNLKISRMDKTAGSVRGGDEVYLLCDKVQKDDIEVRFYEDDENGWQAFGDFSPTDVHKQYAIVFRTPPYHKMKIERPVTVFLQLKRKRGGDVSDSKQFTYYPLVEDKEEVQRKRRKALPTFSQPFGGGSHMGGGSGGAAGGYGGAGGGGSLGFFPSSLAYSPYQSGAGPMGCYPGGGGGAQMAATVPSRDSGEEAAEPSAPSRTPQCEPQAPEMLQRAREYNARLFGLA

[1] = tested on: human peripheral blood mononuclear cells (hPBMCs); assay: Cytotoxicity to hPBMCs (CellTiter-Glo); type: cell-based; settings: hPBMCs, at 40 μM
Procedure: Human peripheral blood mononuclear cells (hPBMCs) were treated with example 1 or DHMEQ and the percentage of viable cells was assessed 24 hours post drug treatment. The graph represents the mean±the standard deviation of three replicate experiments.
The cytotoxicity profile of the compound of Example 1. The cytotoxicity of the compound of Example 1 was determined for human peripheral blood mononuclear cells (hPBMCs). As with the activity assay, the hPBMCs were treated with 0, 0.2, 1, 10, 20 and 40 μM of the compound of Example 1 for 2 hours, and then induced with 20 ng/ml TNF-α for 48 hours. The number of viable cells was determined using CellTiter-Glo luminescent cell viability assay (Promega (cat #G7573)). […] The selectivity index (the ratio of cytotoxicity CC50 to inhibitory IC50) is assigned to the compound of Example 1.

IC50 (RelB): > 20 µM
Compound: O=C(NC1=CC(=O)C2OC2C1O)c1ccccc1O (stereo not drawn) [DHMEQ, dehydroxymethylepoxyquinomicin, reference compound]
concentration at which TNFα induced nuclear accumulation of p65 was significantly blocked (RelA/p65): higher concentration | inhibition of cell growth [1]: greater than 60%
